Converted amounts (≈) assume the structure as drawn.

The text below walks through data of ChEMBL document CHEMBL5241112, “Insights into the recent progress in the medicinal chemistry of pyranopyrimidine analogs” (RSC Med Chem, 2022).

Experiment [1] has as its system Candida albicans. The experiment in a line: Antifungal activity against Candida albicans assessed as diameter of inhibition zone incubated for 48 hrs by agar well diffusion method. The experiment is classed as functional.
The test system of experiment [2] is Staphylococcus aureus. Briefly: Antibacterial activity against Staphylococcus aureus NCIM 2654 assessed as diameter of inhibition zone incubated for 24 hrs by agar well diffusion method. Type of experiment: functional. For orientation: A growth-free zone around the sample is the usual read-out of agar diffusion tests.
The subject of experiment [3] is Escherichia coli. Briefly: Antibacterial activity against Escherichia coli NCIM 2066 assessed as diameter of inhibition zone incubated for 24 hrs by agar well diffusion method. Type of experiment: functional.
Experiment [4] has as its system Staphylococcus aureus. Briefly: Antibacterial activity against Staphylococcus aureus MTCC 87 assessed as diameter of inhibition zone at 0.1 mg/ml incubated for 24 hrs by agar well diffusion method. Type of experiment: functional. The conditions noted are these: read-out: DIZ.
The next experiment addresses Alpha-glucosidase (Saccharomyces cerevisiae S288c, UniProt P53341+P38158+P07265). Briefly: Inhibition of Saccharomyces cerevisiae alpha-glucosidase preincubated for 5 mins followed by PNP-GLUC substrate addition and measured after 20 mins by spectroscopic analysis. Type of experiment: protein assay.
A further experiment deals with Albumin (Bos taurus, UniProt P02769). Briefly: […] bovine serum albumin denaturation incubated for 23 mins by UV-Visible spectrophotometry.
Sequence of Albumin (P02769 whole entry, the tested form may be a part): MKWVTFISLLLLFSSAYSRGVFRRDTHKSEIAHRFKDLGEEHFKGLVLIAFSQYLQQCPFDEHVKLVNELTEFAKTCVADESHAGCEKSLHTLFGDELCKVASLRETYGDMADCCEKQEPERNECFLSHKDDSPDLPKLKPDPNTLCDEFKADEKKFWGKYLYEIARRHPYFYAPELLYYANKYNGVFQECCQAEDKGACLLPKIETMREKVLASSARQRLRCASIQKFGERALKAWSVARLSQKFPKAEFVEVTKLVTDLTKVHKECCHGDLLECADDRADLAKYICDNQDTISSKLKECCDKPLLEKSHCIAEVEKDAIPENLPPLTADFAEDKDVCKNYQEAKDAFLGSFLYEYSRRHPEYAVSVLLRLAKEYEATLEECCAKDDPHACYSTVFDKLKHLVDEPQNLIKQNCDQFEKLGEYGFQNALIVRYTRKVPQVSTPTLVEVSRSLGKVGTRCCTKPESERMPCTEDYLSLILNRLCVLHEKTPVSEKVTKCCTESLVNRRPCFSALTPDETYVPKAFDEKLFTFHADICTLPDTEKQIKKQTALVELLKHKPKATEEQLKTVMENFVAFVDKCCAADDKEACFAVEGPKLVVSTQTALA
Another experiment deals with Klebsiella pneumoniae. Briefly: Antibacterial activity against Klebsiella pneumoniae MTCC 109 assessed as diameter of inhibition zone at 0.1 mg/ml incubated for 24 hrs by agar well diffusion method. Type of experiment: functional. The conditions noted are these: read-out: DIZ.
Experiment [5] is described as follows: Inhibition of porcine pancreatic alpha-amylase preincubated for 10 mins followed by substrate starch addition and measured after 10 mins by colorimetric analysis. Further details: species or system Sus scrofa.
For experiment [6], the system named is Candida albicans. The experiment in a line: Antifungal activity against Candida albicans MTCC 3008 assessed as fungal growth inhibition by broth microdilution method. Type of experiment: functional. A general note: Broth dilution looks for growth in wells or tubes with falling amounts of substance.
Experiment [7] deals with Pseudomonas aeruginosa. Briefly: Antibacterial activity against Pseudomonas aeruginosa assessed as inhibition of bacterial growth. The experiment is classed as functional.
In experiment [8] the test system is Escherichia coli. The experiment in a line: Antibacterial activity against Escherichia coli assessed as inhibition of bacterial growth. Type of experiment: functional.
Another experiment deals with Aspergillus niger. Briefly: Antifungal activity against Aspergillus niger assessed as inhibition of fungal growth. The experiment is classed as functional.
The subject of experiment [9] is Candida albicans. Briefly: Antifungal activity against Candida albicans assessed as inhibition of fungal growth. Type of experiment: functional.
In a further experiment the test system is Aspergillus flavus. The experiment in a line: Antifungal activity against Aspergillus flavus assessed as inhibition of fungal growth. The experiment is classed as functional.
Experiment [10] relates to Staphylococcus aureus. Briefly: Antibacterial activity against Staphylococcus aureus assessed as inhibition of bacterial growth. Type of experiment: functional.
Another experiment relates to Aspergillus fumigatus. Briefly: Antifungal activity against Aspergillus fumigatus MTCC 227 assessed as fungal growth inhibition by broth microdilution method. The experiment is classed as functional.
Experiment [11] concerns Mycobacterium tuberculosis. The experiment in a line: Antitubercular activity against Mycobacterium tuberculosis H37Rv assessed as bacterial growth inhibition at 100 ug/ml. The experiment is classed as functional.
A further experiment relates to Clostridium tetani. The experiment in a line: Antibacterial activity against Clostridium tetani MTCC 449 assessed as bacterial growth inhibition by broth microdilution method. The experiment is classed as functional.
A further experiment concerns Plasmodium falciparum. The experiment in a line: microbe, parasite or virus in culture.
Experiment [12] relates to Mycobacterium tuberculosis. The experiment in a line: Antitubercular activity against Mycobacterium tuberculosis H37Rv assessed as bacterial growth inhibition at 250 ug/ml. Type of experiment: functional.
For the next experiment, the system named is Salmonella typhimurium. The experiment in a line: Antibacterial activity against Salmonella typhimurium MTCC 98 assessed as bacterial growth inhibition by broth microdilution method. The experiment is classed as functional, Salmonella enterica subsp. enterica serovar Typhimurium. The note with it: Salmonella enterica.
For experiment [13], the system named is Pseudomonas aeruginosa. Briefly: Antibacterial activity against Pseudomonas aeruginosa MTCC 741 assessed as diameter of inhibition zone at 0.1 mg/ml incubated for 24 hrs by agar well diffusion method. Type of experiment: functional. The conditions noted are these: read-out: DIZ.
For experiment [14], the system named is Escherichia coli. The experiment in a line: Antibacterial activity against Escherichia coli MTCC 723 assessed as diameter of inhibition zone at 0.1 mg/ml incubated for 24 hrs by agar well diffusion method. The conditions noted are these: read-out: DIZ. The experiment is classed as functional.
The nature of experiment [15]: Antioxidant activity assessed as DPPH radical scavenging activity at 12 ug incubated for 30 mins by spectrophotometric analysis. The experiment is classed as functional. The note with it: dose 12.0 µg. (In general: Loss of DPPH colour is used to gauge radical scavenging.)

Take `COc1ccc(C2c3c(C)n[nH]c3Oc3[nH]c(=O)[nH]c(=O)c32)cc1` (stereo unspecified): the results for the “diameter of the inhibition zone (DIZ)” value in the experiment on Candida albicans [1], in the experiment on Staphylococcus aureus [2] and with Escherichia coli [3] were 27 mm, 27 mm and 19 mm, respectively.

In general, IC50 refers to the concentration that gives 50% inhibition. For the compound `O=C(C1=C(c2ccccc2O)Oc2[nH]c(=S)[nH]c(=O)c2C1c1ccc(F)cc1)N1CCCCC1` (stereo unspecified), the figures for the zone of inhibition at 100 µg/mL in the experiment on Staphylococcus aureus [4] and in the experiment on Klebsiella pneumoniae were 10.5 mm and 9.2 mm, respectively. The IC50 on Alpha-glucosidase was 4101 µM; against Albumin it was 12.3 µM; in experiment [5], 42.8 µM.

As usually defined, the MIC is the smallest concentration in the dilution series that meets the test's criterion for growth inhibition. For `COC1=CC(=O)C[C@@H](C)[C@]12Oc1c(Cl)c(OC)cc(OC)c1C2=O` [GRISEOFULVIN], the MIC in the experiment on Candida albicans [6] worked out at 500 µg/mL (≈ 1420 µM).

In the case of `N#CC1=C(N)Oc2[nH]c(=O)[nH]c(=O)c2C1c1ccccc1O` (stereo unspecified), the MIC was found to be 25 µg/mL (≈ 83.8 µM) in the experiment on Pseudomonas aeruginosa [7]; 75 µg/mL (≈ 251 µM) in the experiment on Escherichia coli [8]; 162 µg/mL (≈ 545 µM) in the experiment with Aspergillus niger; 125 µg/mL (≈ 419 µM) with Candida albicans [9]; 150 µg/mL (≈ 503 µM) in the experiment on Aspergillus flavus; 25 µg/mL (≈ 83.8 µM) with Staphylococcus aureus [10].

The term inhibition denotes how much of the control response was suppressed. With `Cc1nn(-c2ccccc2)c(-n2ccnc2)c1C1C(C#N)=C(N)Oc2c1c(=O)n(C)c(=O)n2C` (stereo unspecified), the MIC stood at 200 µg/mL (≈ 438 µM) with Aspergillus fumigatus, 100 µg/mL (≈ 219 µM) in the experiment on Clostridium tetani, 500 µg/mL (≈ 1100 µM) in the experiment on Candida albicans [6] and 100 µg/mL (≈ 219 µM) in the experiment with Salmonella typhimurium. Also, in experiment [11], the inhibition at 100 µg/mL amounted to 30%. The same compound registered an IC50 in the experiment on Plasmodium falciparum of 0.082 µg/mL (≈ 0.18 µM). Also, the inhibition at 250 µg/mL in [12] was found to be 37%.

`O=C(C1=C(c2ccccc2O)Oc2[nH]c(=S)[nH]c(=O)c2C1c1ccc(Cl)cc1)N1CCCCC1` (stereo unspecified): the figures for the 50% inhibitory concentration (IC50) (at Alpha-glucosidase; against Albumin; in [5]) were 4021 µM, 26.7 µM and 9.9 µM, respectively. Further, the zone of inhibition at 100 µg/mL in the experiment on Pseudomonas aeruginosa [13] amounted to 13.1 mm; in the experiment with Escherichia coli [14], 14.1 mm.

On to `O=C(C1=C(c2ccccc2O)Oc2[nH]c(=S)[nH]c(=O)c2C1c1ccccc1O)N1CCCCC1` (stereo unspecified), for which the values for the IC50 (against Alpha-glucosidase; on Albumin; in [5]) were 6197 µM, 26 µM and 20.1 µM, respectively. The zone of inhibition at 100 µg/mL in the experiment on Pseudomonas aeruginosa [13] turned out to be 10.1 mm; in the experiment on Klebsiella pneumoniae it was 11.6 mm; with Escherichia coli [14], 12.2 mm.

As to `Cc1n[nH]c2c1C(c1ccccc1)c1c([nH]c(=O)[nH]c1=O)O2` (stereo unspecified), the results for the “diameter of the inhibition zone (DIZ)” value in the experiment on Candida albicans [1], with Staphylococcus aureus [2] and in the experiment on Escherichia coli [3] were 23 mm, 18 mm and 14 mm, respectively. In addition, in experiment [15], the Activity was determined as 65.8%.

On to `Cc1ccc(C2c3c(C)n[nH]c3Oc3[nH]c(=O)[nH]c(=O)c32)cc1` (stereo unspecified), for which the results for the “diameter of the inhibition zone (DIZ)” value in the experiment on Candida albicans [1], in the experiment with Staphylococcus aureus [2] and in the experiment on Escherichia coli [3] were 27 mm, 25 mm and 23 mm, respectively. Besides, the Activity in experiment [15] was found to be 71.9%.
